# Measured values published in ChEMBL document CHEMBL1201862, “PubChem BioAssay data set” (2004).
#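 Results reflect a 48-hour exposure of cells in 96-well plates to compound at five concentrations. GI50: concentration for 50% inhibition of growth.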 Active and inactive are the calls of the source. Cut-off read from the data, not from the text of the source: active = GI50 up to about 1.1 µM and inactive = higher.
# Columns and labels:
# Assay in all cases: inhibition of tumour cell growth, NCI panel, 48 h
# SN12C = tested on: SN12C
# SNB-75 = tested on: SNB-75
# M19-MEL = tested on: M19-MEL
# COLO 205 = tested on: COLO 205
# RPMI-8226 = tested on: RPMI-8226
# DMS-114 = tested on: DMS-114
# DLD-1 = tested on: DLD-1
# HOP-92 = tested on: HOP-92
# OVCAR-8 = tested on: OVCAR-8
# NCI-H23 = tested on: NCI-H23
# HOP-18 = tested on: HOP-18
# SW-620 = tested on: SW-620
# KM12 = tested on: KM12
# SNB-19 = tested on: SNB-19
# SR = tested on: SR
# HL-60 = tested on: HL-60
# CAKI-1 = tested on: CAKI-1
# LOX IMVI = tested on: LOX IMVI
SMILES,GI50 (SN12C),GI50 (SNB-75),GI50 (M19-MEL),GI50 (COLO 205),GI50 (RPMI-8226),GI50 (DMS-114),GI50 (DLD-1),GI50 (HOP-92),GI50 (OVCAR-8),GI50 (NCI-H23),GI50 (HOP-18),GI50 (SW-620),GI50 (KM12),GI50 (SNB-19),GI50 (SR),GI50 (HL-60),GI50 (CAKI-1),GI50 (LOX IMVI)
O=C(c1cccs1)N(C(=S)N1CCN(c2ccccc2)CC1)C1CCCCC1,> 100 µM (inactive),> 100 µM (inactive),> 100 µM (inactive),> 100 µM (inactive),> 100 µM (inactive),58.2 µM (inactive),> 100 µM (inactive),> 100 µM (inactive),> 100 µM (inactive),> 100 µM (inactive),> 100 µM (inactive),> 100 µM (inactive),> 100 µM (inactive),> 100 µM (inactive),> 100 µM (inactive),22.1 µM (inactive),> 100 µM (inactive),> 100 µM (inactive)
CCCC(O)C(NC(=O)CCl)C(=O)O (configuration not stated),> 100 µM (inactive),> 100 µM (inactive),> 100 µM (inactive),> 100 µM (inactive),> 100 µM (inactive),> 100 µM (inactive),> 100 µM (inactive),> 100 µM (inactive),> 100 µM (inactive),> 100 µM (inactive),> 100 µM (inactive),> 100 µM (inactive),> 100 µM (inactive),> 100 µM (inactive),–,> 100 µM (inactive),> 100 µM (inactive),> 100 µM (inactive)
N#Cc1ccc(/C=C(/C(=O)c2ccccc2)c2ccccc2)cc1,9.66 µM (inactive),27.2 µM (inactive),14 µM (inactive),19.6 µM (inactive),2.59 µM (inactive),12.9 µM (inactive),6.58 µM (inactive),14 µM (inactive),6.41 µM (inactive),15.7 µM (inactive),27.5 µM (inactive),2.64 µM (inactive),3.24 µM (inactive),19.4 µM (inactive),2.62 µM (inactive),2.67 µM (inactive),14.2 µM (inactive),2.75 µM (inactive)
Cc1ccc(C(C)(C)C[P+](C)(c2ccccc2)c2ccccc2)cc1,20.4 µM (inactive),8.18 µM (inactive),4.52 µM (inactive),4.42 µM (inactive),1.41 µM (inactive),5.25 µM (inactive),27.2 µM (inactive),1.97 µM (inactive),12.7 µM (inactive),11.7 µM (inactive),6.43 µM (inactive),17.4 µM (inactive),4.71 µM (inactive),12 µM (inactive),–,1.75 µM (inactive),23.9 µM (inactive),7.76 µM (inactive)
NC(=O)c1ncn2c1NCC1OC2C(O)C1O (configuration not stated),> 100 µM (inactive),> 100 µM (inactive),> 100 µM (inactive),> 100 µM (inactive),–,> 100 µM (inactive),> 100 µM (inactive),> 100 µM (inactive),> 100 µM (inactive),> 100 µM (inactive),> 100 µM (inactive),> 100 µM (inactive),> 100 µM (inactive),> 100 µM (inactive),> 100 µM (inactive),> 100 µM (inactive),> 100 µM (inactive),> 100 µM (inactive)
OCC(O)COc1ccc(F)cc1 (configuration not stated),> 100 µM (inactive),> 100 µM (inactive),> 100 µM (inactive),> 100 µM (inactive),–,> 100 µM (inactive),> 100 µM (inactive),> 100 µM (inactive),> 100 µM (inactive),> 100 µM (inactive),> 100 µM (inactive),> 100 µM (inactive),> 100 µM (inactive),> 100 µM (inactive),> 100 µM (inactive),> 100 µM (inactive),> 100 µM (inactive),> 100 µM (inactive)
CCCNC1=C(C)C(=O)C2=C(C1=O)[C@H](COC(N)=O)[C@]1(OC)[C@@H]3N[C@@H]3CN21,2.42 µM (inactive),1.67 µM (inactive),3.44 µM (inactive),3.94 µM (inactive),7.18 µM (inactive),4 µM (inactive),5 µM (inactive),8.57 µM (inactive),10 µM (inactive),0.861 µM (active),13.4 µM (inactive),3.73 µM (inactive),8.85 µM (inactive),2.01 µM (inactive),–,0.394 µM (active),4.57 µM (inactive),1.6 µM (inactive)
C/C=C/C(=O)Oc1cccc2cccnc12,5.87 µM (inactive),14.4 µM (inactive),12.5 µM (inactive),18.6 µM (inactive),9.73 µM (inactive),4.22 µM (inactive),4.5 µM (inactive),8.32 µM (inactive),4.61 µM (inactive),4.91 µM (inactive),24.5 µM (inactive),5.61 µM (inactive),16 µM (inactive),48.8 µM (inactive),–,4.32 µM (inactive),32.6 µM (inactive),9.2 µM (inactive)
CC(=O)OCC1=C(C(=O)O)C(c2ccc3c(c2)OCO3)c2cc3c(cc2O1)OCO3 (configuration not stated),> 100 µM (inactive),53.8 µM (inactive),> 100 µM (inactive),> 100 µM (inactive),> 100 µM (inactive),> 100 µM (inactive),> 100 µM (inactive),70.1 µM (inactive),> 100 µM (inactive),> 100 µM (inactive),> 100 µM (inactive),> 100 µM (inactive),–,> 100 µM (inactive),–,> 100 µM (inactive),> 100 µM (inactive),> 100 µM (inactive)
NNC(=S)N/N=C(\CCCC(=O)NCCc1ccccc1)CC(=O)c1ccccc1,> 100 µM (inactive),–,> 100 µM (inactive),> 100 µM (inactive),–,> 100 µM (inactive),> 100 µM (inactive),> 100 µM (inactive),> 100 µM (inactive),> 100 µM (inactive),> 100 µM (inactive),> 100 µM (inactive),> 100 µM (inactive),> 100 µM (inactive),> 100 µM (inactive),> 100 µM (inactive),–,–
COc1ccc(C[C@H](N)C(=O)N2C[C@@H](CO)C[C@@H](n3ccc(=O)[nH]c3=O)C2)cc1,> 100 µM (inactive),–,> 100 µM (inactive),> 100 µM (inactive),> 100 µM (inactive),> 100 µM (inactive),> 100 µM (inactive),> 100 µM (inactive),> 100 µM (inactive),> 100 µM (inactive),> 100 µM (inactive),> 100 µM (inactive),> 100 µM (inactive),> 100 µM (inactive),> 100 µM (inactive),> 100 µM (inactive),> 100 µM (inactive),> 100 µM (inactive)
COc1cc(CC2c3cc(OC)c(OC)cc3CCN2C)c(Oc2cc3c(cc2OC)-c2c(OC)c(OC)c(OC)c4c2C(C3)N(C)CC4)cc1OC (configuration not stated),14 µM (inactive),11.4 µM (inactive),15 µM (inactive),7.23 µM (inactive),14 µM (inactive),12.1 µM (inactive),15.5 µM (inactive),6.53 µM (inactive),14.9 µM (inactive),17.1 µM (inactive),16.4 µM (inactive),15.6 µM (inactive),12.7 µM (inactive),19.4 µM (inactive),–,9.29 µM (inactive),14.8 µM (inactive),6.73 µM (inactive)
